Read-outs that look alike come from different tables or passages of the source.
What was measured:
Type in all cases: cell-based, human
[1] = test system: non-senescent control IMR90 ER:RAS cells; test: Nuclei count (Hoechst, high content imaging) senolytic assay, OIS model, non-senescent control cells; details: Homo sapiens
In short: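 Readout is automated image-based counting of Hoechst-stained nuclei per well, with loss of cells relative to untreated wells taken as cell death. Senescent (4-OHT, 100 nM) and control IMR90 ER:RAS cells were exposed to compounds for 72 h at 10 nM to 10 μM final.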

[2] = test system: senescent A549 cells (etoposide-induced); test: Nuclei count senolytic assay, therapy-induced senescence (TIS) model, senescent cells; details: Homo sapiens, A549, Senescent cells, mean, read-out: Mean % Cell Survival
In short: (§1)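 Read-out is the imaged count of Hoechst 33342-stained nuclei (2 μg/ml final) in fixed, permeabilised A549 cells. Senescent cells had received etoposide at 100 μM for 48 h plus three days recovery in normal media. Compound exposure lasted 72 h across a 10-point […] range, 10 μM to 10 nM.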

[3] = test system: non-senescent control A549 cells; test: Nuclei count senolytic assay, TIS model, non-senescent control cells; details: Homo sapiens, A549, Control cells, mean, read-out: Mean % Cell Survival
In short: as §1

**Q.** With `O=c1c(O)c(-c2ccc(O)cc2O)oc2cc(O)cc(O)c12` [Morin, morin] as the molecule, how does the viability at 10 µM ([1]; IMR-90, 72 h, Control, log (dose) [M] -5, 72 h, mean n=3 (Fig 3C), read-out: Mean % Cell Survival) read?
**A.** 95.2%

**Q.** What about the viability at 4.677 µM ([1]; IMR-90, 72 h, Control, log (dose) [M] -5.33, 72 h, mean n=3 (Fig 3C), read-out: Mean % Cell Survival) of the same molecule?
**A.** 93.9%

**Q.** And the viability at 2.188 µM ([1]; IMR-90, 72 h, Control, log (dose) [M] -5.66, 72 h, mean n=3 (Fig 3C), read-out: Mean % Cell Survival)?
**A.** 96.1%

**Q.** And the viability at 1 µM ([1]; IMR-90, 72 h, Control, log (dose) [M] -6, 72 h, mean n=3 (Fig 3C), read-out: Mean % Cell Survival)?
**A.** 81.3%

**Q.** What about the viability at 0.4677 µM ([1]; IMR-90, 72 h, Control, log (dose) [M] -6.33, 72 h, mean n=3 (Fig 3C), read-out: Mean % Cell Survival) of the same molecule?
**A.** 91.6%

**Q.** And the viability at 0.2188 µM ([1]; IMR-90, 72 h, Control, log (dose) [M] -6.66, 72 h, mean n=3 (Fig 3C), read-out: Mean % Cell Survival)?
**A.** 86.4%

**Q.** What about the viability at 0.1 µM ([1]; IMR-90, 72 h, Control, log (dose) [M] -7, 72 h, mean n=3 (Fig 3C), read-out: Mean % Cell Survival) of the same molecule?
**A.** 91.3%

**Q.** And the viability at 0.04677 µM ([1]; IMR-90, 72 h, Control, log (dose) [M] -7.33, 72 h, mean n=3 (Fig 3C), read-out: Mean % Cell Survival)?
**A.** 86.7%

**Q.** And the viability at 0.02188 µM ([1]; IMR-90, 72 h, Control, log (dose) [M] -7.66, 72 h, mean n=3 (Fig 3C), read-out: Mean % Cell Survival)?
**A.** 91.5%

**Q.** And the viability at 0.01 µM ([1]; IMR-90, 72 h, Control, log (dose) [M] -8, 72 h, mean n=3 (Fig 3C), read-out: Mean % Cell Survival)?
**A.** 99.5%

**Q.** What about the viability at 10 µM ([1]; IMR-90, Control cells, log (dose) [M] -5, individual replicates, SUP FIG 4C, read-out: % Cell Survival) of the same molecule?
**A.** 88.7%

**Q.** What about the viability at 4.677 µM ([1]; IMR-90, Control cells, log (dose) [M] -5.33, individual replicates, SUP FIG 4C, read-out: % Cell Survival) of the same molecule?
**A.** 93.4%

**Q.** And the viability at 2.188 µM ([1]; IMR-90, Control cells, log (dose) [M] -5.66, individual replicates, SUP FIG 4C, read-out: % Cell Survival)?
**A.** 102%

**Q.** What about the viability at 0.4677 µM ([1]; IMR-90, Control cells, log (dose) [M] -6.33, individual replicates, SUP FIG 4C, read-out: % Cell Survival) of the same molecule?
**A.** 88.8%

**Q.** And the viability at 0.1 µM ([1]; IMR-90, Control cells, log (dose) [M] -7, individual replicates, SUP FIG 4C, read-out: % Cell Survival)?
**A.** 98.5%

**Q.** What about the viability at 0.01 µM ([1]; IMR-90, Control cells, log (dose) [M] -8, individual replicates, SUP FIG 4C, read-out: % Cell Survival) of the same molecule?
**A.** 103%

**Q.** And the viability at 10 µM ([1]; IMR-90, Control, log (dose) [M] -5, read-out: % Cell Survival)?
**A.** 102%

**Q.** What about the viability at 2.19 µM ([1]; IMR-90, Control, log (dose) [M] -5.66, read-out: % Cell Survival) of the same molecule?
**A.** 93.3%

**Q.** What about the viability at 0.468 µM ([1]; IMR-90, Control, log (dose) [M] -6.33, read-out: % Cell Survival) of the same molecule?
**A.** 110%

**Q.** What about the viability at 0.219 µM ([1]; IMR-90, Control, log (dose) [M] -6.66, read-out: % Cell Survival) of the same molecule?
**A.** 106%

**Q.** And the viability at 0.1 µM ([1]; IMR-90, Control, log (dose) [M] -7, read-out: % Cell Survival)?
**A.** 91.9%

**Q.** And the viability at 0.0219 µM ([1]; IMR-90, Control, log (dose) [M] -7.66, read-out: % Cell Survival)?
**A.** 98.9%

**Q.** And the viability at 0.01 µM ([1]; IMR-90, Control, log (dose) [M] -8, read-out: % Cell Survival)?
**A.** 97.2%

**Q.** What about the viability at 10 µM ([2]; log (dose) [M] -5) of the same molecule?
**A.** 87.9%

**Q.** And the viability at 4.68 µM ([2]; log (dose) [M] -5.33)?
**A.** 93.5%

**Q.** And the viability at 2.19 µM ([2]; log (dose) [M] -5.66)?
**A.** 59.5%

**Q.** What about the viability at 1 µM ([2]; log (dose) [M] -6) of the same molecule?
**A.** 67.1%

**Q.** And the viability at 0.468 µM ([2]; log (dose) [M] -6.33)?
**A.** 88.2%

**Q.** And the viability at 0.219 µM ([2]; log (dose) [M] -6.66)?
**A.** 69.3%

**Q.** What about the viability at 0.1 µM ([2]; log (dose) [M] -7) of the same molecule?
**A.** 84.2%

**Q.** What about the viability at 0.0468 µM ([2]; log (dose) [M] -7.33) of the same molecule?
**A.** 54.5%

**Q.** And the viability at 0.0219 µM ([2]; log (dose) [M] -7.66)?
**A.** 87.7%

**Q.** And the viability at 0.01 µM ([2]; log (dose) [M] -8)?
**A.** 95.1%

**Q.** And the viability at 10 µM ([3]; log (dose) [M] -5)?
**A.** 33.9%

**Q.** What about the viability at 4.68 µM ([3]; log (dose) [M] -5.33) of the same molecule?
**A.** 98.9%

**Q.** What about the viability at 2.19 µM ([3]; log (dose) [M] -5.66) of the same molecule?
**A.** 63.6%

**Q.** And the viability at 1 µM ([3]; log (dose) [M] -6)?
**A.** 115%

**Q.** What about the viability at 0.468 µM ([3]; log (dose) [M] -6.33) of the same molecule?
**A.** 104%

**Q.** What about the viability at 0.219 µM ([3]; log (dose) [M] -6.66) of the same molecule?
**A.** 99.4%

**Q.** What about the viability at 0.1 µM ([3]; log (dose) [M] -7) of the same molecule?
**A.** 94.4%

**Q.** What about the viability at 0.0468 µM ([3]; log (dose) [M] -7.33) of the same molecule?
**A.** 111%

**Q.** And the viability at 0.0219 µM ([3]; log (dose) [M] -7.66)?
**A.** 67.6%

**Q.** What about the viability at 0.01 µM ([3]; log (dose) [M] -8) of the same molecule?
**A.** 67.4%
